Assay results from US20230278981A1, “DICHLOROPHENOL HSD17B13 INHIBITORS AND USES THEREOF” (INIPHARM, INC., priority 2020, published 2023).

Molecular target: HSD17B13 (Homo sapiens (Human), UniProt Q7Z5P4)
Assay: LC/MS estrone detection assay: conversion of estradiol to estrone by HSD17B13
Format: biochemical
Conditions: 4 μM estradiol, 6 mM NAD+, 30 nM HSD17B13 enzyme (E. coli expressed His-tagged), 2 hours at 26.5° C.
Experimental: The liquid chromatography/mass spectrometry (LC/MS) estrone detection assay monitors the conversion of estradiol to estrone by HSD17B13. This assay was undertaken in a 96wp format (Eppendorf deep well Plate 96/500) in an 80 μl reaction volume containing: 4 μM of Estradiol (E2; Cayman; Ser. No. 10/006,315), 6 mM NAD+(Sigma; #N0623) and 30 nM HSD17B13 enzyme (in-house; E. coli expressed His-tagged, purified, soluble protein) in a reaction containing […] potassium phosphate buffer pH 7.4, with 0.5% vehicle (DMSO). Reactions were incubated for 2 hours at 26.5° C., and estradiol (E2) conversion to estrone (E1) was quantitated by LC-MS/MS based analyte detection for both E2 and E1 using LCMS grade reagents.
Reactions were terminated by the addition of two volumes of acetonitrile (MeCN; LCMS grade; CAS #75/05/8) containing deuterated (D4)-E1 used as internal standard (Clear Synth; #CS-T-54273; 500 ng/mL final concentration). Samples were applied to pre-prepared Bond Elut-C18 extraction cartridges (3 mL; Agilent; Ser. No. 12/102,028), washed and eluted in MeCN. Eluates were dried under nitrogen and re-suspended in 60% methanol (LCMS grade methanol; CAS #67/56/1) before submission for analysis. Aqueous linearity for E2 and E1 were included for quantification.
Analysis of samples was undertaken on a XBridge BEH C18 column (Waters; #186003033) using 0.1% Diethyl Amine in MeCN (mobile phase A; DEA CAS #109-89-7) and 0.1% Diethyl Amine in milli-Q water (mobile phase B) in a 3 min gradient allowing 25% B. Analytes were detected in negative mode using MRM analysis, with E2 having a RT of 1.85 min and E1 having a RT of 2 min. Activity of the enzyme, in the absence of NAD^+, was used to evaluate specificity of conversion. Enzyme activity in the presence of test samples was expressed as a percentage of the uninhibited enzyme activity, and plotted versus inhibitor concentration. Non-linear regression was performed using a four-parameter logistic model and GraphPad Prism software (GraphPad Software, La Jolla, Calif.). All assessments were undertaken in duplicate evaluations and pooled during extraction process and subsequently injected as duplicates for LC-MS/MS analysis.

Sequence of HSD17B13 (Q7Z5P4 20-300): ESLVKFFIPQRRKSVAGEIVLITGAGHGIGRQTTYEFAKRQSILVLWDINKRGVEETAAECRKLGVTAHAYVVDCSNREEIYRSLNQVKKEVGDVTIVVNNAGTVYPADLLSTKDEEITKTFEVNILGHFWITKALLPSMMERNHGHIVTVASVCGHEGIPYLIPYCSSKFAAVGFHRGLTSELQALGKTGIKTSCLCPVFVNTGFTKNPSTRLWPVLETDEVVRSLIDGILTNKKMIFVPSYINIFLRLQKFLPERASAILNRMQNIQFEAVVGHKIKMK

Row | SMILES | IC50 [µM]
1 | CS(=O)(=O)c1ccc(Cn2cnc3cccc(NC(=O)c4cc(Cl)c(O)c(Cl)c4)c3c2=O)cc1 [Example 59, 3,5-dichloro-4-hydroxy-N-(3-(4-(methylsulfonyl)benzyl)-4-oxo-3,4-dihydroquinazolin-5-yl)benzamide] | 1 to 10
2 | CS(=O)(=O)c1cccc(Cn2cnc3cccc(NC(=O)c4cc(Cl)c(O)c(Cl)c4)c3c2=O)c1 [Example 60, 3,5-dichloro-4-hydroxy-N-(3-(3-(methylsulfonyl)benzyl)-4-oxo-3,4-dihydroquinazolin-5-yl)benzamide.] | 0.5 to 1
3 | O=C(Nc1cccc2ncn(Cc3cccc(OC(F)(F)F)c3)c(=O)c12)c1ccc(Cl)c(O)c1Cl [Example 65, 2,4-dichloro-3-hydroxy-N-(4-oxo-3-(3-(trifluoromethoxy)benzyl)-3,4-dihydroquinazolin-5-yl)benzamide] | 1 to 10
4 | N#Cc1ccccc1Cn1cnc2cccc(NC(=O)c3cc(Cl)c(O)c(Cl)n3)c2c1=O [Example 66, 4,6-dichloro-N-(3-(2-cyanobenzyl)-4-oxo-3,4-dihydroquinazolin-5-yl)-5-hydroxypicolinamide] | 0.1 to 0.5
5 | N#Cc1cc(C(=O)Nc2cccc3ncn(Cc4cccc(C(F)(F)F)c4)c(=O)c23)cc(Cl)c1O [Example 68, 3-chloro-5-cyano-4-hydroxy-N-(4-oxo-3-(3-(trifluoromethyl)benzyl)-3,4-dihydroquinazolin-5-yl)benzamide] | 0.1 to 0.5
6 | O=C(Nc1cccnc1C(=O)NCc1ccccc1OC(F)(F)F)c1cc(Cl)c(O)c(Cl)c1 [Example 69, 3-(3,5-dichloro-4-hydroxybenzamido)-N-(2-(trifluoromethoxy)benzyl) picolinamide] | 0.1 to 0.5
7 | O=C(Nc1cccc2nc(C(F)(F)F)n(Cc3ccccc3OC(F)(F)F)c(=O)c12)c1cc(Cl)c(O)c(Cl)c1 [Example 70, 3,5-dichloro-4-hydroxy-N-(4-oxo-3-(2-(trifluoromethoxy)benzyl)-2-(trifluoromethyl)-3,4-dihydroquinazolin-5-yl)benzamide] | 0.1 to 0.5
8 | CC(C)(C)CCNC(=O)c1ccccc1NC(=O)c1cc(Cl)c(O)c(Cl)c1 [Example 71, 3,5-dichloro-N-(2-((3,3-dimethylbutyl)carbamoyl)phenyl)-4-hydroxybenzamide] | 0.1 to 0.5
9 | O=C(Nc1cccc2ncn(C3(c4ccccc4F)CC3)c(=O)c12)c1cc(Cl)c(O)c(Cl)n1 [Example 72, 4,6-dichloro-N-(3-(1-(2-fluorophenyl)cyclopropyl)-4-oxo-3,4-dihydroquinazolin-5-yl)-5-hydroxypicolinamide] | 0.1 to 0.5
10 | O=C(Nc1cnccc1C(=O)NCc1ccccc1OC(F)(F)F)c1cc(Cl)c(O)c(Cl)c1 [Example 73, 3-(3,5-dichloro-4-hydroxybenzamido)-N-(2-(trifluoromethoxy)benzyl) isonicotinamide] | 0.1 to 0.5
11 | CC(c1ccccc1OC(F)(F)F)n1cnc2cccc(NC(=O)c3cc(Cl)c(O)c(Cl)c3)c2c1=O (centres unmarked) [Example 74, 3,5-dichloro-4-hydroxy-N-(4-oxo-3-(1-(2-(trifluoromethoxy)phenyl)ethyl)-3,4-dihydroquinazolin-5-yl)benzamide] | 0.1 to 0.5
12 | O=C(Nc1cccc2ncn(Cc3ccn(-c4ccccc4)n3)c(=O)c12)c1cc(Cl)c(O)c(Cl)c1 [Example 77, 3,5-dichloro-4-hydroxy-N-(4-oxo-3-((1-phenyl-1H-pyrazol-3-yl)methyl)-3,4-dihydroquinazolin-5-yl)benzamide] | 0.1 to 0.5
13 | CS(=O)(=O)c1ccccc1Cn1cnc2cccc(NC(=O)c3cc(Cl)c(O)c(Cl)n3)c2c1=O [Example 79, 4,6-dichloro-5-hydroxy-N-(3-(2-(methylsulfonyl)benzyl)-4-oxo-3,4-dihydroquinazolin-5-yl)picolinamide] | 0.5 to 1
14 | O=C(Nc1cccc2ncn(Cc3cccnc3)c(=O)c12)c1cc(Cl)c(O)c(Cl)c1 [Example 80, 3,5-dichloro-4-hydroxy-N-(4-oxo-3-(pyridin-3-ylmethyl)-3,4-dihydroquinazolin-5-yl)benzamide] | 0.5 to 1
15 | O=C(Nc1cccc2ncn(Cc3ccccc3N3CCS(=O)(=O)CC3)c(=O)c12)c1cc(Cl)c(O)c(Cl)c1 [Example 83, 3,5-dichloro-N-(3-(2-(1,1-dioxidothiomorpholino)benzyl)-4-oxo-3,4-dihydroquinazolin-5-yl)-4-hydroxybenzamide] | 1 to 10
16 | CN(C)CCOc1ccc(NC(=O)c2cc(Cl)c(O)c(Cl)c2)c(C(=O)NCc2ccccc2OC(F)(F)F)c1 [Example 85, 3,5-dichloro-N-(4-(2-(dimethylamino)ethoxy)-2-((2-(trifluoromethoxy)benzyl)carbamoyl)phenyl)-4-hydroxybenzamide] | > 10
17 | O=C(Nc1ccc(OCCO)cc1C(=O)NCc1ccccc1OC(F)(F)F)c1cc(Cl)c(O)c(Cl)c1 [Example 86, 3,5-dichloro-4-hydroxy-N-(4-(2-hydroxyethoxy)-2-((2-(trifluoromethoxy)benzyl)carbamoyl)phenyl)benzamide] | 0.1 to 0.5

Results, then the compound that gave them:

Row | IC50 [µM] | SMILES
18 | 0.1 to 0.5 | O=C(Nc1cccc2ncn(Cc3ccc(OCCO)cc3)c(=O)c12)c1cc(Cl)c(O)c(Cl)c1 [Example 58, 3,5-dichloro-4-hydroxy-N-(3-(4-(2-hydroxyethoxy)benzyl)-4-oxo-3,4-dihydroquinazolin-5-yl)benzamide]
19 | 0.1 to 0.5 | CC(C)(C)CCn1cnc2cccc(NC(=O)c3cc(Cl)c(O)c(Cl)n3)c2c1=O [Example 61, 4,6-dichloro-N-(3-(3,3-dimethylbutyl)-4-oxo-3,4-dihydroquinazolin-5-yl)-5-hydroxypicolinamide]
20 | 0.1 to 0.5 | CC(C)(C)n1ccc(Cn2cnc3cccc(NC(=O)c4cc(Cl)c(O)c(Cl)n4)c3c2=O)n1 [Example 62, N-(3-((1-(tert-butyl)-1H-pyrazol-3-yl)methyl)-4-oxo-3,4-dihydroquinazolin-5-yl)-4,6-dichloro-5-hydroxypicolinamide]
21 | 0.1 to 0.5 | O=C(Nc1cccc2ncn(Cc3ccc(N4CCS(=O)(=O)CC4)cc3)c(=O)c12)c1cc(Cl)c(O)c(Cl)c1 [Example 63, 3,5-dichloro-N-(3-(4-(1,1-dioxidothiomorpholino)benzyl)-4-oxo-3,4-dihydroquinazolin-5-yl)-4-hydroxybenzamide]
22 | ≤ 0.1 | Cc1nc2cccc(NC(=O)c3cc(Cl)c(O)c(Cl)c3)c2c(=O)n1Cc1ccccc1OC(F)(F)F [Example 64, 3,5-dichloro-4-hydroxy-N-(2-methyl-4-oxo-3-(2-(trifluoromethoxy)benzyl)-3,4-dihydroquinazolin-5-yl)benzamide]
23 | ≤ 0.1 | O=C(Nc1cccc2ncn(Cc3n[nH]c4ccccc34)c(=O)c12)c1cc(Cl)c(O)c(Cl)c1 [Example 67, N-(3-((1H-indazol-3-yl)methyl)-4-oxo-3,4-dihydroquinazolin-5-yl)-3,5-dichloro-4-hydroxybenzamide]
24 | ≤ 0.1 | O=C(Nc1cccc2ncn(Cc3ncccc3C(F)(F)F)c(=O)c12)c1cc(Cl)c(O)c(Cl)c1 [Example 75, 3,5-dichloro-4-hydroxy-N-(4-oxo-3-((3-(trifluoromethyl)pyridin-2-yl)methyl)-3,4-dihydroquinazolin-5-yl)benzamide]
25 | ≤ 0.1 | O=C(Nc1cccc2ncn(Cc3ccn(-c4ccccc4F)n3)c(=O)c12)c1cc(Cl)c(O)c(Cl)c1 [Example 76, 3,5-dichloro-N-(3-((1-(2-fluorophenyl)-1H-pyrazol-3-yl)methyl)-4-oxo-3,4-dihydroquinazolin-5-yl)-4-hydroxybenzamide]
26 | ≤ 0.1 | O=C(Nc1cccc2ncn(C(c3ccccc3)c3ccccc3)c(=O)c12)c1cc(Cl)c(O)c(Cl)c1 [Example 78, N-(3-benzhydryl-4-oxo-3,4-dihydroquinazolin-5-yl)-3,5-dichloro-4-hydroxybenzamide]
27 | ≤ 0.1 | O=C(Nc1ccc(Cl)c2ncn(Cc3ccccc3OC(F)(F)F)c(=O)c12)c1cc(Cl)c(O)c(Cl)c1 [Example 81, 3,5-dichloro-N-(8-chloro-4-oxo-3-(2-(trifluoromethoxy)benzyl)-3,4-dihydroquinazolin-5-yl)-4-hydroxybenzamide]
28 | ≤ 0.1 | O=C(Nc1cccc2ncn(Cc3cccnc3C(F)(F)F)c(=O)c12)c1cc(Cl)c(O)c(Cl)c1 [Example 82, 3,5-dichloro-4-hydroxy-N-(4-oxo-3-((2-(trifluoromethyl)pyridin-3-yl)methyl)-3,4-dihydroquinazolin-5-yl)benzamide]
29 | ≤ 0.1 | O=C(Nc1cccc2ncn(Cc3ccccc3N3CCOCC3)c(=O)c12)c1cc(Cl)c(O)c(Cl)c1 [Example 84, 3,5-dichloro-4-hydroxy-N-(3-(2-morpholinobenzyl)-4-oxo-3,4-dihydroquinazolin-5-yl)benzamide]
